Test results: patent US20250027958A1, “DIAGNOSTIC AND THERAPEUTIC METHODS USING HEME AS A BIOMARKER FOR CELLULAR AND TISSUE DAMAGE” (Beth Israel Deaconess Medical Center, Inc., priority 2021, published 2025)
“Also recorded” adds a separate entry of the source.

Tested on: male C57BL/6 mice
Conditions: DOX 20 mg/kg i.p., blood collected 1 hr later
Procedure: In brief, for the assessment of acute cytotoxicity, male C57BL/6 mice (10-12 weeks old) are administered HBI-002 (10 ml/kg, per os) or a control vehicle (10ml/kg, per os) at 0 hr and 1 hr, followed by administration of doxorubicin at 1.25 hr (20 mg/kg, intraperitoneal injection) and blood and tissue collection at 2.25 hr.
Male C57BL/6 mice (10-12 weeks old) were administered HBI-002 (10 ml/kg, per os) or a control vehicle (10 ml/kg, per os) at 0 hr and 1 hr, followed by administration of DOX at 1.25 hr (20 mg/kg, intraperitoneal injection) and blood and tissue collection at 2.25 hr (FIG. 1).

In the case of `COc1cccc2c1C(=O)c1c(O)c3c(c(O)c1C2=O)C[C@@](O)(C(=O)CO)C[C@@H]3O[C@H]1C[C@H](N)[C@H](O)[C@H](C)O1` [DOX, Doxorubicin], the “serum heme upon administration of DOX” value is reported as “significant increases in heme levels; also recorded: significant increase in serum heme”.
